Experiments:
IMC-1 (IL-2 20 ng/mL) [1] = experiment: drug sensitivity score (DSS) (DSS units); higher = more sensitive; extreme values may be limits of the assay; settings: 72 h
KHYG-1 (IL-2 2.5 ng/mL) [2] = experiment: as above; settings: 72 h
[3] = tested on: normal primary NK cells, pool 3 (3 donors) (IL-2 2.5 ng/mL); experiment: as above; settings: 72 h
[4] = tested on: normal primary NK cells, pool 1 (3 donors), resting (IL-2 0 ng/mL); experiment: as above; settings: 72 h
NK-YS (IL-2 2.5 ng/mL) [5] = experiment: as above; settings: 72 h
DERL-7 (IL-2 2.5 ng/mL) [6] = experiment: as above; settings: 72 h
[7] = tested on: normal primary NK cells, pool 1 (3 donors) (IL-2 2.5 ng/mL); experiment: as above; settings: 72 h
[8] = tested on: normal primary NK cells, pool 2 (3 donors) (IL-2 2.5 ng/mL); experiment: as above; settings: 72 h
NKL (IL-2 2.5 ng/mL) [9] = experiment: as above; settings: 72 h
KAI3 (IL-2 2.5 ng/mL) [10] = experiment: as above; settings: 72 h
NK-92 (IL-2 2.5 ng/mL) [11] = experiment: as above; settings: 72 h
SNK-6 (IL-2 2.5 ng/mL) [12] = experiment: as above; settings: 72 h
YT (IL-2 2.5 ng/mL) [13] = experiment: as above; settings: 72 h
[14] = tested on: normal NK cells expanded with K562-aAPC; experiment: as above; settings: 72 h; IL-2 2.5 ng/mL
Protocol: (§1)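 Drug sensitivity and resistance testing on K562-aAPC-expanded normal NK cells: 5 concentrations (10-fold steps over a 10,000-fold range), 72 h at 37 °C, viability by CellTiter-Glo normalised to DMSO and benzethonium chloride controls; DSS from the fitted curve.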

[15] = tested on: normal NK cells expanded with K562-aAPC; experiment: percent inhibition of viability; higher = more inhibition; settings: 72 h, IL-2 2.5 ng/mL
Protocol: as §1

IMC-1 (IL-2 20 ng/mL) [16] = experiment: as above; settings: 72 h
KHYG-1 (IL-2 2.5 ng/mL) [17] = experiment: as above; settings: 72 h
[18] = tested on: normal primary NK cells, pool 3 (3 donors) (IL-2 2.5 ng/mL); experiment: as above; settings: 72 h
[19] = tested on: normal primary NK cells, pool 1 (3 donors), resting (IL-2 0 ng/mL); experiment: as above; settings: 72 h
NK-YS (IL-2 2.5 ng/mL) [20] = experiment: as above; settings: 72 h
DERL-7 (IL-2 2.5 ng/mL) [21] = experiment: as above; settings: 72 h
[22] = tested on: normal primary NK cells, pool 1 (3 donors) (IL-2 2.5 ng/mL); experiment: as above; settings: 72 h
[23] = tested on: normal primary NK cells, pool 2 (3 donors) (IL-2 2.5 ng/mL); experiment: as above; settings: 72 h
NKL (IL-2 2.5 ng/mL) [24] = experiment: as above; settings: 72 h
KAI3 (IL-2 2.5 ng/mL) [25] = experiment: as above; settings: 72 h
NK-92 (IL-2 2.5 ng/mL) [26] = experiment: as above; settings: 72 h
SNK-6 (IL-2 2.5 ng/mL) [27] = experiment: as above; settings: 72 h
YT (IL-2 2.5 ng/mL) [28] = experiment: as above; settings: 72 h

COc1ccc2c(OCc3nnc4ccc(-c5ccccc5)nn34)ccnc2c1 [AMG-208] (max concentration tested 2500 nM)
Settings | drug sensitivity score
DERL-7 (IL-2 2.5 ng/mL) [6] | 0.89
IMC-1 (IL-2 20 ng/mL) [1] | 0.02
KAI3 (IL-2 2.5 ng/mL) [10] | 0.07
KHYG-1 (IL-2 2.5 ng/mL) [2] | 0.59
NK-92 (IL-2 2.5 ng/mL) [11] | 0.61
NK-YS (IL-2 2.5 ng/mL) [5] | 0
NKL (IL-2 2.5 ng/mL) [9] | 0
SNK-6 (IL-2 2.5 ng/mL) [12] | 7.74
YT (IL-2 2.5 ng/mL) [13] | 0.16
[3] | 0
[4] | 0
[7] | 0
[8] | 0
[14] | 0

percent inhibition of viability [%]
Settings | 0.25 nM | 2.5 nM | 25 nM | 250 nM | 2500 nM
DERL-7 (IL-2 2.5 ng/mL) [21] | -3.09 | -8.21 | -1.7 | -5.84 | -4.71
IMC-1 (IL-2 20 ng/mL) [16] | -1.21 | 1.46 | 1.28 | 6.67 | 11.1
KAI3 (IL-2 2.5 ng/mL) [25] | -0.14 | -2.19 | -6.54 | 1.34 | 11.6
KHYG-1 (IL-2 2.5 ng/mL) [17] | -2.14 | 0.21 | 1.18 | 6.23 | 15.6
NK-92 (IL-2 2.5 ng/mL) [26] | 0.24 | -14.7 | -6.65 | 10.4 | 13.1
NK-YS (IL-2 2.5 ng/mL) [20] | -3.94 | -3.82 | -0.96 | 1.47 | 6.08
NKL (IL-2 2.5 ng/mL) [24] | -4.88 | -0.72 | 5.74 | 1.87 | 1.01
SNK-6 (IL-2 2.5 ng/mL) [27] | 2.2 | 11.6 | 22.9 | 28.1 | 18.8
YT (IL-2 2.5 ng/mL) [28] | 1.44 | 4.97 | 5.31 | 10 | 12.4
[15] | -4.22 | -2.93 | 1.22 | -1.02 | 9.46
[18] | -8.14 | -5.89 | 5.5 | 0.46 | 5.72
[19] | -15.8 | -2.94 | 7.27 | 3.54 | -2.41
[22] | 0.88 | 0.76 | 0.54 | 1.27 | 4.15
[23] | -3.74 | -5.68 | 4.86 | 9.98 | 4.41

CC(C)N(C[C@H]1O[C@@H](n2cnc3c(N)ncnc32)[C@H](O)[C@@H]1O)[C@H]1C[C@@H](CCc2nc3cc(C(C)(C)C)ccc3[nH]2)C1 [EPZ-5676] (max concentration tested 1000 nM)
Settings | drug sensitivity score
DERL-7 (IL-2 2.5 ng/mL) [6] | 0
KAI3 (IL-2 2.5 ng/mL) [10] | 0.23
KHYG-1 (IL-2 2.5 ng/mL) [2] | 1.32
NK-92 (IL-2 2.5 ng/mL) [11] | 1.76
NK-YS (IL-2 2.5 ng/mL) [5] | 0.65
NKL (IL-2 2.5 ng/mL) [9] | 3.3
SNK-6 (IL-2 2.5 ng/mL) [12] | 2.24
YT (IL-2 2.5 ng/mL) [13] | 0.67
[4] | 0
[7] | 1.75

percent inhibition of viability [%]
Settings | DERL-7 (IL-2 2.5 ng/mL) [21] | KAI3 (IL-2 2.5 ng/mL) [25] | KHYG-1 (IL-2 2.5 ng/mL) [17] | NK-92 (IL-2 2.5 ng/mL) [26] | NK-YS (IL-2 2.5 ng/mL) [20] | NKL (IL-2 2.5 ng/mL) [24] | SNK-6 (IL-2 2.5 ng/mL) [27] | YT (IL-2 2.5 ng/mL) [28] | [19] | [22]
0.1 nM | 0.43 | -1.4 | -0.41 | -12.3 | -3.52 | 0.4 | -2.4 | -1.48 | 9.51 | 2.06
1 nM | 5.23 | -5 | 1.41 | -21.5 | -3.4 | -6 | 4.63 | -5.01 | 20.3 | 11
10 nM | 1.69 | -1.28 | -1.91 | -14.1 | 2.56 | -2.76 | 8.19 | -2.34 | 21 | 9.38
100 nM | 4.27 | 5.24 | 7.32 | 5.88 | 4.51 | 18.4 | 3.31 | 7.03 | 20.5 | 13.4
1000 nM | -4.86 | 11.9 | 19.1 | 24.7 | 16.4 | 28.7 | 35.8 | 14.4 | 23.9 | 15.7

COc1cc(Nc2ncc(F)c(Nc3ccc4c(n3)N(COP(=O)(O)O)C(=O)C(C)(C)O4)n2)cc(OC)c1OC [Fostamatinib] (max concentration tested 2500 nM)
Settings | drug sensitivity score
IMC-1 (IL-2 20 ng/mL) [1] | 0.89
[3] | 0
[8] | 0.74
[14] | 2.26

percent inhibition of viability [%]
Settings | 0.25 nM | 2.5 nM | 25 nM | 250 nM | 2500 nM
IMC-1 (IL-2 20 ng/mL) [16] | -2.94 | -0.51 | -4.59 | -3.53 | -9.62
[15] | -1.89 | -6.48 | -4.68 | -0.77 | 45.3
[18] | -14 | -12.5 | -10.8 | -5.58 | 4.31
[23] | -8.88 | -12.4 | -4.65 | -3.71 | 24.9

From the supplement of paper PMC5908809
